Data taken from patent publication US3974268A, “Bone-seeking technetium-99m imidodiphosphonate complex” (priority 1975, dated 1976).

Tests used:
[1] = in words, stated as known; cited from earlier work
[2] = Organ distribution of 99mTc-IDP in rabbits with 85Sr administered simultaneously (Table 1); type: in vivo, New Zealand adult albino rabbits; settings: for % Dose/1% Body Weight, AVG BONE: mean of femur, tibia, spine, pelvis
Experimental: The organ distribution of the ^99m Tc imidodiphosphonate (IDP) was studied after I.V. injection of 50-200 μCi containing 0.1-0.2 mg of IDP per animal in New Zealand adult albino rabbits weighing 3.5-5 kg and compared with 10-20 μCi of ^85 Sr administered simultaneously as a biological standard. The methods of tissue assay used were those described in the Subramanian et al. references, supra. These animals were sacrificed at various time intervals from 15 min. to 24 hrs. after injection. […] A whole body image of the dog was obtained in the right lateral projection 4 hours after intravenous injection of 5 mCi of ^99m Tc-IDP using the Ohio Nuclear Model 100 area scan camera fitted with a 140 kev high sensitivity parallel hole collimator, with the data density setting of 200.
Table 1 contains biological distribution data of ^99m Tc-IDP in rabbits with ^85 Sr used simultaneously. The numbers shown in parenthesis after the time of study is the number of animals used per time interval. The values for each organ shown are the averages for each group of animals. The bone concentration shown as % dose / 1% body weight is the mean value of individual average of concentrations in four types of bone; the femur, tibia, spine and pelvis. An overall mean concentration of the four types of bone was calculated for each animal and then the average of these mean values were determined. Similarly the mean values for bone/organ ratios were calculated for each group.
In order to compensate for biologic variation, bone agents are best studied by comparing the quantitative uptake of the new compound with simultaneously administered ^85 Sr as a means of normalization. In comparing several ^99m Tc labeled agents between each other one should not only compare the whole organ uptake of individual compounds but also the ratios of their concentrations with ^85 Sr, especially so in comparing bone uptakes. Due to regional variation in bone uptake with the skeleton it is difficult to correctly estimate whole body bone uptake quantitatively. Nevertheless, the data for single whole bones (femur and tibia) is useful. […] This concentration change over serial time intervals may be due to the metabolic breakdown of the compound at the bone mineral surface with the ^99m Tc complex being more labile, while we known the biological half life of ^85 Sr is prolonged. Even at the later time intervals than 2 hours, ^99m Tc-IDP concentration in bone is at least 20-25% higher than the other Tc complexes (Table 2). The soft tissue concentrations of all these complexes are lower, especially that of the muscle, than ^85 Sr. The liver concentration is somewhat higher than ^85 Sr for some ^99m Tc complexes. This should not be a problem because the total liver concentration is relatively low.

[3] = 15 min after I.V. injection, mean of 6 rabbits
[4] = 1 hour after I.V. injection, mean of 6 rabbits
[5] = 2 hours after I.V. injection, mean of 9 rabbits
[6] = 4 hours after I.V. injection, mean of 9 rabbits
[7] = 24 hours after I.V. injection, mean of 7 rabbits

## [85Sr] [85Sr]
[1]
  biological half life: prolonged
[2]; [3]
  % Dose in Whole Organ, BLOOD: 16.1 % Dose
  % Dose in Whole Organ, KIDNEY: 1.27 % Dose
  % Dose in Whole Organ, LIVER: 2.13 % Dose
  % Dose in Whole Organ, MARROW: 0.903 % Dose
  % Dose in Whole Organ, MUSCLE: 15.6 % Dose
  % Dose in Whole Organ, URINE: 4.94 % Dose
  % Dose in Whole Organ, WHOLE FEMUR: 0.741 % Dose
  % Dose in Whole Organ, WHOLE TIBIA: 0.540 % Dose
  % Dose/1% Body Weight, BLOOD: 2.29 % Dose/1% Body Weight
  % Dose/1% Body Weight, FEMUR: 3.41 % Dose/1% Body Weight
  % Dose/1% Body Weight, KIDNEY: 2.68 % Dose/1% Body Weight
  % Dose/1% Body Weight, LG INT: 1.79 % Dose/1% Body Weight
  % Dose/1% Body Weight, LIVER: 0.692 % Dose/1% Body Weight
  % Dose/1% Body Weight, MARROW: 0.410 % Dose/1% Body Weight
  % Dose/1% Body Weight, MUSCLE: 0.363 % Dose/1% Body Weight
  % Dose/1% Body Weight, PELVIS: 5.06 % Dose/1% Body Weight
  % Dose/1% Body Weight, SM INT: 1.23 % Dose/1% Body Weight
  % Dose/1% Body Weight, SPINE: 3.76 % Dose/1% Body Weight
  % Dose/1% Body Weight, TIBIA: 3.02 % Dose/1% Body Weight
  RATIOS BONE/BLOOD: 1.71
  RATIOS BONE/MARROW: 9.84
  RATIOS BONE/MUSCLE: 10.6
[2]; 15 min after I.V. injection, 6 rabbits
  % Dose/1% Body Weight, AVG BONE: 3.82 % Dose/1% Body Weight
[2]; [4]
  % Dose in Whole Organ, BLOOD: 8.17 % Dose
  % Dose in Whole Organ, KIDNEY: 0.938 % Dose
  % Dose in Whole Organ, LIVER: 1.58 % Dose
  % Dose in Whole Organ, MARROW: 0.817 % Dose
  % Dose in Whole Organ, MUSCLE: 9.55 % Dose
  % Dose in Whole Organ, URINE: 8.96 % Dose
  % Dose in Whole Organ, WHOLE FEMUR: 1.27 % Dose
  % Dose in Whole Organ, WHOLE TIBIA: 1.03 % Dose
  % Dose/1% Body Weight, BLOOD: 1.17 % Dose/1% Body Weight
  % Dose/1% Body Weight, FEMUR: 5.23 % Dose/1% Body Weight
  % Dose/1% Body Weight, KIDNEY: 1.54 % Dose/1% Body Weight
  % Dose/1% Body Weight, LG INT: 0.961 % Dose/1% Body Weight
  % Dose/1% Body Weight, LIVER: 0.489 % Dose/1% Body Weight
  % Dose/1% Body Weight, MARROW: 0.382 % Dose/1% Body Weight
  % Dose/1% Body Weight, MUSCLE: 0.222 % Dose/1% Body Weight
  % Dose/1% Body Weight, PELVIS: 5.47 % Dose/1% Body Weight
  % Dose/1% Body Weight, SM INT: 0.654 % Dose/1% Body Weight
  % Dose/1% Body Weight, SPINE: 5.82 % Dose/1% Body Weight
  % Dose/1% Body Weight, TIBIA: 4.67 % Dose/1% Body Weight
  RATIOS BONE/BLOOD: 4.53
  RATIOS BONE/MARROW: 13.9
  RATIOS BONE/MUSCLE: 23.9
[2]; 1 hour after I.V. injection, 6 rabbits
  % Dose/1% Body Weight, AVG BONE: 5.30 % Dose/1% Body Weight
[2]; [5]
  % Dose in Whole Organ, BLOOD: 5.19 % Dose
  % Dose in Whole Organ, KIDNEY: 0.638 % Dose
  % Dose in Whole Organ, LIVER: 0.947 % Dose
  % Dose in Whole Organ, MARROW: 0.499 % Dose
  % Dose in Whole Organ, MUSCLE: 7.96 % Dose
  % Dose in Whole Organ, URINE: 16.6 % Dose
  % Dose in Whole Organ, WHOLE FEMUR: 1.67 % Dose
  % Dose in Whole Organ, WHOLE TIBIA: 1.34 % Dose
  % Dose/1% Body Weight, BLOOD: 0.742 % Dose/1% Body Weight
  % Dose/1% Body Weight, FEMUR: 6.84 % Dose/1% Body Weight
  % Dose/1% Body Weight, KIDNEY: 1.14 % Dose/1% Body Weight
  % Dose/1% Body Weight, LG INT: 0.762 % Dose/1% Body Weight
  % Dose/1% Body Weight, LIVER: 0.357 % Dose/1% Body Weight
  % Dose/1% Body Weight, MARROW: 0.227 % Dose/1% Body Weight
  % Dose/1% Body Weight, MUSCLE: 0.186 % Dose/1% Body Weight
  % Dose/1% Body Weight, PELVIS: 7.35 % Dose/1% Body Weight
  % Dose/1% Body Weight, SM INT: 0.669 % Dose/1% Body Weight
  % Dose/1% Body Weight, SPINE: 8.05 % Dose/1% Body Weight
  % Dose/1% Body Weight, TIBIA: 6.60 % Dose/1% Body Weight
  RATIOS BONE/BLOOD: 10.5
  RATIOS BONE/MARROW: 36
  RATIOS BONE/MUSCLE: 44
[2]; 2 hours after I.V. injection, 9 rabbits
  % Dose/1% Body Weight, AVG BONE: 7.21 % Dose/1% Body Weight
[2]; [6]
  % Dose in Whole Organ, BLOOD: 2.72 % Dose
  % Dose in Whole Organ, KIDNEY: 0.267 % Dose
  % Dose in Whole Organ, LIVER: 0.576 % Dose
  % Dose in Whole Organ, MARROW: 0.300 % Dose
  % Dose in Whole Organ, MUSCLE: 4.80 % Dose
  % Dose in Whole Organ, URINE: 26.2 % Dose
  % Dose in Whole Organ, WHOLE FEMUR: 1.84 % Dose
  % Dose in Whole Organ, WHOLE TIBIA: 1.57 % Dose
  % Dose/1% Body Weight, BLOOD: 0.388 % Dose/1% Body Weight
  % Dose/1% Body Weight, FEMUR: 7.87 % Dose/1% Body Weight
  % Dose/1% Body Weight, KIDNEY: 0.488 % Dose/1% Body Weight
  % Dose/1% Body Weight, LG INT: 0.421 % Dose/1% Body Weight
  % Dose/1% Body Weight, LIVER: 0.168 % Dose/1% Body Weight
  % Dose/1% Body Weight, MARROW: 0.137 % Dose/1% Body Weight
  % Dose/1% Body Weight, MUSCLE: 0.125 % Dose/1% Body Weight
  % Dose/1% Body Weight, PELVIS: 9.83 % Dose/1% Body Weight
  % Dose/1% Body Weight, SM INT: 0.300 % Dose/1% Body Weight
  % Dose/1% Body Weight, SPINE: 9.57 % Dose/1% Body Weight
  % Dose/1% Body Weight, TIBIA: 7.64 % Dose/1% Body Weight
  RATIOS BONE/BLOOD: 23.6
  RATIOS BONE/MARROW: 66.9
  RATIOS BONE/MUSCLE: 73.3
[2]; 4 hours after I.V. injection, 9 rabbits
  % Dose/1% Body Weight, AVG BONE: 9.16 % Dose/1% Body Weight
[2]; [7]
  % Dose in Whole Organ, BLOOD: 0.250 % Dose
  % Dose in Whole Organ, KIDNEY: 0.022 % Dose
  % Dose in Whole Organ, LIVER: 0.004 % Dose
  % Dose in Whole Organ, MARROW: 0.070 % Dose
  % Dose in Whole Organ, MUSCLE: 0.628 % Dose
  % Dose in Whole Organ, WHOLE FEMUR: 1.55 % Dose
  % Dose in Whole Organ, WHOLE TIBIA: 1.38 % Dose
  % Dose/1% Body Weight, BLOOD: 0.331 % Dose/1% Body Weight
  % Dose/1% Body Weight, FEMUR: 6.39 % Dose/1% Body Weight
  % Dose/1% Body Weight, KIDNEY: 0.067 % Dose/1% Body Weight
  % Dose/1% Body Weight, LG INT: 0.088 % Dose/1% Body Weight
  % Dose/1% Body Weight, LIVER: 0.016 % Dose/1% Body Weight
  % Dose/1% Body Weight, MARROW: 0.032 % Dose/1% Body Weight
  % Dose/1% Body Weight, MUSCLE: 0.015 % Dose/1% Body Weight
  % Dose/1% Body Weight, PELVIS: 8.13 % Dose/1% Body Weight
  % Dose/1% Body Weight, SM INT: 0.042 % Dose/1% Body Weight
  % Dose/1% Body Weight, SPINE: 6.96 % Dose/1% Body Weight
  % Dose/1% Body Weight, TIBIA: 6.58 % Dose/1% Body Weight
  RATIOS BONE/BLOOD: 20.9
  RATIOS BONE/MARROW: 217
  RATIOS BONE/MUSCLE: 462
[2]; 24 hours after I.V. injection, 7 rabbits
  % Dose/1% Body Weight, AVG BONE: 6.93 % Dose/1% Body Weight
